This note sets out measurements from patent US9962369B2, “Methods and compositions for transdermal delivery” (SPRAYABLE HOLDINGS, INC., priority 2014, dated 2018).

Molecules are shown by their SMILES.

One data set can be described thus: Transdermal delivery of melatonin: plasma level of melatonin after applying composition to skin of a subject. As to conditions: 0.375 mL of 7% helper ester + 0.8% melatonin in water on skin of the back (20 cm×20 cm); control 2.0 ml of […] melatonin suspension in water; plasma level at 1, 2, 4, 8 hours.
For `CCN(CC)CCOC(=O)c1ccccc1OC(C)=O` [2-(Diethylamino)ethyl 2-acetoxybenzoate], the “transdermal delivery of melatonin compared to control composition (A)” value is “more efficient and effective transdermal delivery of melatonin”.
Still for that read-out and setting: the same measure for `CCN(CC)CCCOC(=O)c1ccccc1OC(C)=O` [3-(Diethylamino)propyl 2-acetoxybenzoate]: “more efficient and effective transdermal delivery of melatonin”; for `CCCCN(CCCC)CCOC(=O)c1ccccc1OC(C)=O` [2-(Dibutylamino)ethyl 2-acetoxybenzoate]: “more efficient and effective transdermal delivery of melatonin”; for `CC(=O)Oc1ccccc1C(=O)OCCCCCCN(C)C` [6-(Dimethylamino)hexyl 2-acetoxybenzoate]: “more efficient and effective transdermal delivery of melatonin”.

The same data set, now with this note: 0.60 mL of 7% helper ester + 0.5% melatonin in water on skin of the back (20 cm×20 cm); control 2.0 ml of […] melatonin suspension in water; plasma level at 1, 2, 4, 8 hours.
On to `CC(C)OC(=O)[C@@H](N)Cc1ccccc1` [Phenylalanine isopropyl ester], for which the “transdermal delivery of melatonin compared to control composition (A)” value was “more efficient and effective transdermal delivery of melatonin”.
On the same count and under the same terms, the value for `CC(C)Cc1ccc(C(C)C(=O)OCCN(C)C)cc1` (stereo not drawn) [2-(Dimethylamino)ethyl 2-(4-isobutylphenyl)propionate] was “more efficient and effective transdermal delivery of melatonin”; that for `CC[C@H](C)[C@H](N)C(=O)OC(C)C` [Isoleucine isopropyl ester] was “more efficient and effective transdermal delivery of melatonin”; that for `CCCCCCOC(=O)[C@@H]1CCCN1` [Proline hexyl ester] was “more efficient and effective transdermal delivery of melatonin”.
On the same count and under the same terms, the value for `COC(=O)[C@@H](N)CC(C)C` [Leucine methyl ester] was “more efficient and effective transdermal delivery of melatonin”; that for `CCN(CC)CCCCOC(=O)C(C)c1ccc(CC(C)C)cc1` (stereo not drawn) [4-(Diethylamino)butyl 2-(4-isobutylphenyl)propionate] was “more efficient and effective transdermal delivery of melatonin”; that for `CCN(CC)CCCCCOC(=O)C(C)c1ccc(CC(C)C)cc1` (stereo not drawn) [5-(Diethylamino)pentyl 2-(4-isobutylphenyl)propionate] was “more efficient and effective transdermal delivery of melatonin”.
Same read-out and setting: the same measure for `CCCCCCOC(=O)[C@@H](N)[C@@H](C)CC` [Isoleucine hexyl ester]: “more efficient and effective transdermal delivery of melatonin”.
